pEC50: −log10 of the molar value. Structures can show the parent of a compound that is named as a salt. Where two headings read alike, the source gives them in different places.
Columns and labels:
[1] = target: T1, human PPARalpha (Homo sapiens, UniProt Q07869); test: Cellular PPARalpha assay (luciferase reporter, stably transfected HEK cell line); format: cell-based; conditions: GR-GAL4-humanPPARalpha-LBD
T1 construct: amino acids S167-Y468; expressed in transfected cells; host or cells: HEK (human embryo kidney) cells, stably transfected; plasmid pcDNA3
T1 sequence (Q07869 167-468): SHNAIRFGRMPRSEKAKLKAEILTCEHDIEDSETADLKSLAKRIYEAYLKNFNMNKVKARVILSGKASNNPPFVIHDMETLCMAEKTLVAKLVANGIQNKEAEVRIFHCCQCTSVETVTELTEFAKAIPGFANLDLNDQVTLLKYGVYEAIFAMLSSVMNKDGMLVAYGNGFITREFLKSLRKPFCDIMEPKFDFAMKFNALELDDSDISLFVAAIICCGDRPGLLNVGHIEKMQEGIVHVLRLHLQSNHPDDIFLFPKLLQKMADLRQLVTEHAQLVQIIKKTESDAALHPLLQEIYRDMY
Description: Determination of EC50 Values of PPAR Agonists in the Cellular PPARalpha Assay
(§1) The potency of substances which bind to human PPARalpha and activate it in an agonistic manner is analyzed using a stably transfected HEK cell line (HEK=human embryo kidney) which is referred to here as PPARalpha reporter cell line. It contains two genetic elements, a luciferase reporter element (pdeltaM-GAL4-Luc-Zeo) and a PPARalpha fusion protein (GR-GAL4-humanPPARalpha-LBD) which mediates expression of the luciferase reporter element depending on a PPARalpha ligand. The stably and constitutively expressed fusion protein GR-GAL4-humanPPARalpha-LBD binds in the cell nucleus of the PPARalpha reporter cell line via the GAL4 protein portion to the GAL4 DNA binding motifs 5′-upstream of the luciferase reporter element which is stably integrated in the genome of the cell line. There is only weak expression of the luciferase reporter gene in the absence of a PPARalpha ligand if fatty acid-depleted fetal calf serum (cs-FCS) is used in the assay. PPARalpha ligands bind and activate the PPARalpha fusion protein and thereby stimulate the expression of the luciferase reporter gene. The luciferase which is formed can be detected by means of chemiluminescence via an appropriate substrate.
The PPARalpha reporter cell line was prepared in two stages. Firstly, the luciferase reporter element was constructed and stably transfected into HEK cells. For this purpose, five binding sites of the yeast transcription factor GAL4 (Accession # AF264724) were cloned in 5′-upstream of a 68 bp-long minimal MMTV promoter (Accession # V01175). The minimal MMTV promoter section contains a […] and a TATA element in order to enable efficient transcription by RNA polymerase II. The cloning and sequencing of the GAL4-MMTV construct took place in analogy to the description of Sambrook J. et. al. (Molecular cloning, Cold Spring Harbor Laboratory Press, 1989). Then the complete Photinus pyralis gene (Accession # M15077) was cloned in 3′-downstream of the GAL4-MMTV element. After sequencing, the luciferase reporter element consisting of five GAL4 binding sites, MMTV promoter and luciferase gene was recloned into a plasmid which confers zeocin resistance in order to obtain the plasmid pdeltaM-GAL4-Luc-Zeo. This vector was transfected into HEK cells in accordance with the statements in Ausubel, F. M. et al. (Current protocols in molecular biology, Vol. 1-3, John Wiley & Sons, Inc., 1995).
In a second step, the PPARalpha fusion protein (GR-GAL4-humanPPARalpha-LBD was introduced into the stable cell clone described. For this purpose, initially the cDNA coding for the N-terminal 76 amino acids of the glucocorticoid receptor (Accession # P04150) was linked to the cDNA section coding for amino acids 1-147 of the yeast transcription factor GAL4 (Accession # P04386). The cDNA of the ligand-binding domain of the human PPARalpha receptor (amino acids S167-Y468; Accession # S74349) was cloned in at the 3′-end of this GR-GAL4 construct. The fusion construct prepared in this way (GR-GAL4-humanPPARalpha-LBD) was recloned into the plasmid pcDNA3 (Invitrogen) in order to enable constitutive expression therein by the cytomegalovirus promoter. This plasmid was linearized with a restriction endonuclease and stably transfected into the previously described cell clone containing the luciferase reporter element. The finished PPARalpha reporter cell line which contains a luciferase reporter element and constitutively expresses the PPARalpha fusion protein (GR-GAL4-human PPARalpha-LBD) was isolated by selection with zeocin (0.5 mg/ml) and G418 (0.5 mg/ml).
The activity of PPARalpha agonists is determined in a 3-day assay which is described below: […]

[2] = target: T2, human PPARdelta (Homo sapiens, UniProt Q03181); test: Cellular PPARdelta assay (luciferase reporter, stably transfected HEK cell line); format: cell-based; conditions: GR-GAL4-humanPPARdelta-LBD
T2 construct: amino acids S139-Y441; expressed in transfected cells; host or cells: HEK (human embryo kidney) cells, stably transfected; plasmid pcDNA3
T2 sequence (Q03181 139-441): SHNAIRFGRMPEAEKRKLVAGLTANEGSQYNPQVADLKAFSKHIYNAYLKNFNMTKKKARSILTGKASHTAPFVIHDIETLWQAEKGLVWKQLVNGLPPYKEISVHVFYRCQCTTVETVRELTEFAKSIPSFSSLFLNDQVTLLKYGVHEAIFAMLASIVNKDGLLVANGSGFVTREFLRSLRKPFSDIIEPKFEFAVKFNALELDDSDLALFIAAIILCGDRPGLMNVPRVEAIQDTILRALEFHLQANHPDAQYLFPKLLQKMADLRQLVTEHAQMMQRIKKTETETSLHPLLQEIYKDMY
Description: Determination of EC50 Values of PPAR Agonists in the Cellular PPARdelta Assay
as §1, with “PPARdelta” for “PPARalpha”, “In analogy to the assay described for PPARalpha, the PPARdelta reporter cell line also” for “It”, “(GR-GAL4-humanPPARdelta-LBD)” for “(GR-GAL4-humanPPARalpha-LBD)”, “GR-GAL4-humanPPARdelta-LBD” for “GR-GAL4-humanPPARalpha-LBD”, “little” for “weak”, “stimulate” for “stimulate the”
The production of the stable PPARdelta reporter cell line is based on a stable HEK-cell clone which was stably transfected with a luciferase reporter element. This step was already described above in the section “construction of the PPARalpha reporter cell line”. In a second step, the PPARdelta fusion protein (GR-GAL4-humanPPARdelta-LBD was stably introduced into this cell clone. For this purpose, the cDNA coding for the N-terminal 76 amino acids of the glucocorticoid receptor (Accession # P04150) was linked to the cDNA section coding for amino acids 1-147 of the yeast transcription factor GAL4 (Accession # P04386). The cDNA of the ligand-binding domain of the human PPARdelta receptor (amino acids S139-Y441; Accession # L07592) was cloned in at the 3′-end of this GR-GAL4 construct. The fusion construct prepared in this way (GR-GAL4-humanPPARdelta-LBD) was recloned into the plasmid pcDNA3 (Invitrogen) in order to enable constitutive expression by the cytomegalovirus promoter. This plasmid was linearized with a restriction endonuclease and stably transfected into the previously described cell clone containing the luciferase reporter element. The resulting PPARdelta reporter cell line which contains a luciferase reporter element and constitutively expresses the PPARdelta fusion protein (GR-GAL4-human PPARdelta-LBD) was isolated by selection with zeocin (0.5 mg/ml) and G418 (0.5 mg/ml).
The activity of PPARdelta agonists is determined in a 3-day assay in exact analogy to the procedure already described for the PPARalpha reporter cell line except that the PPARdelta reporter cell line and a specific PPARdelta agonist was used as a standard to control test efficacy.

[3] = diabetic animal model; cited from earlier work
[4] = obese, insulin resistant rhesus monkeys; cited from earlier work
[5] = rhesus monkeys; cited from earlier work
[6] = cynomoigus monkeys; cited from earlier work
[7] = two weeks clinical trials in healthy volunteers; cited from earlier work

SMILES	pEC50 [1]	pEC50 [2]	other results
Cc1cc(CCN(CC2CCOCC2)c2nc3ccc(C(F)(F)F)cc3s2)ccc1-c1noc(=O)[nH]1 [Example 9, 3-(2-Methyl-4-{2-[(tetrahydro-pyran-4-ylmethyl)-(6-trifluoromethyl-benzothiazol-2-yl)-amino]-ethyl}-phenyl)-4H-[1,2,4]oxadiazol-5-one]	7.22	7.70	–
COCCCN(CCc1ccc(-c2noc(=O)[nH]2)c(C)c1)c1nc2ccc(C(F)(F)F)cc2s1 [Example 14, 3-(4-{2-[(3-Methoxy-propyl)-(6-trifluoromethyl-benzothiazol-2-yl)-amino]-ethyl}-2-methyl-phenyl)-4H-[1,2,4]oxadiazol-5-one]	7.15	8.40	–
COCCN(CCc1ccc(-c2noc(=O)[nH]2)cc1)c1nc(-c2ccc(Cl)cc2)cs1 [Example 23, 3-(4-{2-[[4-(4-Chloro-phenyl)-thiazol-2-yl]-(2-methoxy-ethyl)-amino]-ethyl}-phenyl)-4H-[1,2,4]oxadiazol-5-one]	6.09	6.19	–
COCCN(Cc1ccc(-c2noc(=O)[nH]2)c(F)c1)c1nc2ccc(C(F)(F)F)cc2s1 [Example 28, 3-(2-Fluoro-4-{[(2-methoxy-ethyl)-(6-trifluoromethyl-benzothiazol-2-yl)-amino]-methyl}-phenyl)-4H-[1,2,4]oxadiazol-5-one]	5.99	7.22	–
CCCc1c(OCCCOc2ccc(OCC(=O)O)cc2)ccc(C(C)=O)c1O [Example L-165041]	–	–	plasma cholesterol [3]: raises
Cc1cc(SCc2sc(-c3ccc(C(F)(F)F)cc3)nc2C)ccc1OCC(=O)O [GW501516]	–	–	HDL-cholesterol [4]: raises; insulin levels [4]: decreases; plasma LDL-cholesterol [4]: decreases; plasma triglycerides [4]: decreases
CCCc1c(OCCCSc2nnc(SCC(=O)O)s2)ccc(C(C)=O)c1O [YM-16638]	–	–	plasma lipids [5]: significantly lowers; plasma lipids [6]: significantly lowers; plasma lipids [7]: acts in a similar manner

Second part, led by results:

pEC50 [1]	pEC50 [2]	SMILES	other results
5.87	6.57	CCCCN(Cc1ccc(-c2noc(=O)[nH]2)c(F)c1)c1nc2ccc(C(F)(F)F)cc2s1 [Example 24, 3-(4-{[Butyl-(6-trifluoromethyl-benzothiazol-2-yl)-amino]-methyl}-2-fluoro-phenyl)-4H-[1,2,4]oxadiazol-5-one]	–
5.96	5.74	CN(C)CCN(Cc1ccc(-c2noc(=O)[nH]2)c(C(F)(F)F)c1)c1nc2ccc(C(F)(F)F)cc2s1 [Example 33, 3-(4-{[(2-Dimethylamino-ethyl)-(6-trifluoromethyl-benzothiazol-2-yl)-amino]-methyl}-2-trifluoromethyl-phenyl)-4H-[1,2,4]oxadiazol-5-one trifluoroacetate]	–
6.44	6.70	COCCCN(Cc1ccc(-c2noc(=O)[nH]2)c(F)c1)c1nc(-c2ccc(Cl)cc2)cs1 [Example 39, 3-(4-{[[4-(4-Chloro-phenyl)-thiazol-2-yl]-(3-methoxy-propyl)-amino]-methyl}-2-fluoro-phenyl) -4H-[1,2,4]oxadiazol-5-one]	–
